Laboratory results published in the supplement of paper PMC10307832.

Assays:
Assay in all cases: relative viability (nuclei count vs DMSO), 5 days (fraction); higher = more cells survive
BAY61-3606 + Decitabine = compound: COC1=C(C=C(C=C1)C2=CC3=NC=CN3C(=N2)NC4=C(C=CC=N4)C(=O)N)OC [BAY61-3606] + Nc1ncn([C@H]2C[C@H](O)[C@@H](CO)O2)c(=O)n1 [Decitabine] (partner 2 µM)
Procedure, shortened: (§1)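 Relative viability equals treated-well nuclei counts divided by vehicle-well nuclei counts. Counts came from 4× images of lung cancer cell lines grown in 1536-well plates for 5 days after pin-tool dosing on the day after seeding. Dosing used one drug alone or a fixed anchor-drug dose plus five library-drug doses (not always all listed) in √10 steps, and values are medians of duplicate plates.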

BAY61-3606 + Pictilisib = compound: COC1=C(C=C(C=C1)C2=CC3=NC=CN3C(=N2)NC4=C(C=CC=N4)C(=O)N)OC [BAY61-3606] + CS(=O)(=O)N1CCN(Cc2cc3nc(-c4cccc5[nH]ncc45)nc(N4CCOCC4)c3s2)CC1 [Pictilisib] (partner 1 µM)
Procedure, shortened: as §1

Doxorubicin + AZD7762 = compound: COc1cccc2c1C(=O)c1c(O)c3c(c(O)c1C2=O)C[C@@](O)(C(=O)CO)C[C@@H]3O[C@H]1C[C@H](N)[C@H](O)[C@H](C)O1 [Doxorubicin] + NC(=O)Nc1cc(-c2cccc(F)c2)sc1C(=O)N[C@H]1CCCNC1 [AZD7762] (partner 0.2 µM)
Procedure, shortened: as §1

Doxorubicin + Trametinib = compound: COc1cccc2c1C(=O)c1c(O)c3c(c(O)c1C2=O)C[C@@](O)(C(=O)CO)C[C@@H]3O[C@H]1C[C@H](N)[C@H](O)[C@H](C)O1 [Doxorubicin] + CC(=O)Nc1cccc(-n2c(=O)n(C3CC3)c(=O)c3c(Nc4ccc(I)cc4F)n(C)c(=O)c(C)c32)c1 [Trametinib] (partner 0.02 µM)
Procedure, shortened: as §1

Cell Line | relative viability (BAY61-3606 + Decitabine; first compound 0.02 µM) | relative viability (BAY61-3606 + Decitabine; first compound 0.06325 µM) | relative viability (BAY61-3606 + Decitabine; first compound 0.2 µM) | relative viability (BAY61-3606 + Decitabine; first compound 0.6325 µM) | relative viability (BAY61-3606 + Decitabine; first compound 2 µM) | relative viability (BAY61-3606 + Pictilisib; first compound 0.02 µM) | relative viability (BAY61-3606 + Pictilisib; first compound 0.06325 µM) | relative viability (BAY61-3606 + Pictilisib; first compound 0.2 µM) | relative viability (BAY61-3606 + Pictilisib; first compound 0.6325 µM) | relative viability (BAY61-3606 + Pictilisib; first compound 2 µM) | relative viability (Doxorubicin + AZD7762; first compound 0.001 µM) | relative viability (Doxorubicin + AZD7762; first compound 0.003162 µM) | relative viability (Doxorubicin + AZD7762; first compound 0.01 µM) | relative viability (Doxorubicin + AZD7762; first compound 0.03162 µM) | relative viability (Doxorubicin + AZD7762; first compound 0.1 µM) | relative viability (Doxorubicin + Trametinib; first compound 0.001 µM) | relative viability (Doxorubicin + Trametinib; first compound 0.003162 µM) | relative viability (Doxorubicin + Trametinib; first compound 0.01 µM) | relative viability (Doxorubicin + Trametinib; first compound 0.03162 µM) | relative viability (Doxorubicin + Trametinib; first compound 0.1 µM)
NCI-H2170 | 0.449 | 0.529 | 0.485 | 0.462 | 0.429 | 0.368 | 0.28 | 0.308 | 0.389 | 0.265 | 0.825 | 0.95 | 0.792 | 0.626 | 0.961 | 0.98 | 0.953 | 0.887 | 0.756 | 0.959
NCI-H2347 | 0.731 | 0.63 | 0.599 | 0.698 | 0.666 | 0.715 | 0.495 | 0.801 | 0.746 | 0.892 | 0.618 | 0.895 | 0.668 | 0.686 | 0.58 | 0.197 | 0.297 | 0.284 | 0.281 | 0.283
NCI-H2405 | 0.798 | 0.78 | 0.703 | 0.779 | 0.643 | 0.623 | 0.308 | 0.379 | 0.371 | 0.43 | 0.785 | 0.802 | 0.801 | 0.682 | 0.381 | 0.595 | 0.548 | 0.601 | 0.446 | 0.584
NCI-H3122 | 0.463 | 0.559 | 0.494 | 0.347 | 0.511 | 0.621 | 0.632 | 0.568 | 0.59 | 0.619 | 0.964 | 1.03 | 0.894 | 0.989 | 0.952 | 0.201 | 0.223 | 0.229 | 0.185 | 0.264
PC-3 [JPC-3] | 0.822 | 0.711 | 0.848 | 0.947 | 0.781 | 0.784 | 0.695 | 0.695 | 0.678 | 0.561 | 0.901 | 0.927 | 0.96 | 0.762 | 0.585 | 0.614 | 0.628 | 0.687 | 0.632 | 0.741
PC-14 |  | 0.244 | 0.246 | 0.203 | 0.226 | 0.647 | 0.605 | 0.654 | 0.994 | 0.589 | 0.387 | 0.366 | 0.519 | 0.259 | 0.15 | 0.751 | 0.74 | 0.536 | 0.162 | 0.0928
RERF-LC-KJ | 0.766 | 0.717 | 0.654 | 0.659 | 0.556 | 0.532 | 0.411 | 0.59 | 0.577 | 0.441 | 1.04 | 1.1 | 0.872 | 0.866 | 0.896 | 0.659 | 1.02 | 0.696 | 0.514 | 0.513
